According to article PMC3230598, “Structural Studies of β-Carbonic Anhydrase from the Green Alga Coccomyxa: Inhibitor Complexes with Anions and Acetazolamide” (PLoS ONE, 2011):

Tests used:
Co-CA (Coccomyxa β-CA) = target: T1, Co-CA (Coccomyxa β-CA) (Coccomyxa sp. PA, UniProt Q96554); experiment: X-ray crystal structure of co-crystal, […] Å; assay type: binding; conditions: 15 mM NaSCN, 1.8 M NaKPO4 pH 7.2; N bound to active-site zinc (2.0 Å); also at dimer interface
T1 construct: zinc enzyme, homotetramer (dimer of dimers); residues 6-227 modelled

[1] = target: the molecule itself; experiment: crystal structure; Co-CA at ~35 mg/ml in 10 mM Tris-HCl pH 7.4, hanging drop at 18°C, 1.6-2.3 M Na,KPO4 pH 7.2, with acetazolamide, phosphate, thiocyanate, azide or iodide; space group P43212; one dimer in the asymmetric unit, tetramer by a crystallographic 2-fold

For N#CS [SCN, thiocyanate], which “X-ray crystal structure of co-crystal, 2.5 Å” value (Co-CA (Coccomyxa β-CA)) is on record?
The value was “Azide and thiocyanate ions in the active site of Co-CA were clearly defined”.

B1: β-carbonic anhydrase from Coccomyxa sp. (enzyme, UniProt Q96554 1-227, looked up)
chain: MSAKDTADLSPLLEANRKWADECAAKDSTYFSKVAGSQAPEYLYIGCADSRVSPAQLFNMAPGEVFVQRNVGNLVSNKDLNCMSCLEYTVDHLKIKHILVCGHYNCGACKAGLVWHPKTAGVTNLWISDVREVRDKNAAKLHGLSADDAWDKMVELNVEAQVFNVCASPIVQAAWARGQPLSVHGIVYTPGTGLVKELIKPITGMEDAGALLRADLKQHCFFSESLA
notes: β-carbonic anhydrase of Coccomyxa sp., 227 amino acids, GenBank AAC33484.1; Met-1 to Asp-5 not seen in the electron density, models hold residues 6-227; One zinc ion per monomer; crystallised with acetazolamide, phosphate, thiocyanate, azide or iodide; also called Co-CA; Coccomyxa β-CA; source: E. coli, over-expressed, purified (amylose-resin column, Q-Sepharose Fast Flow)
For B1, which “stoichiometry N” value [1] is on record?
Its value is 4.
